Source: ChEMBL document CHEMBL3585344, “Thiazole-based aminopyrimidines and N-phenylpyrazolines as potent antimicrobial agents: synthesis and biological evaluation” (2014)
In brackets after ≈: the same amount, converted by molar mass.

What was measured:
Aspergillus fumigatus [1] = test: Antifungal activity against Aspergillus fumigatus isolated from human after 72 hrs by microdilution method; format: functional
Bacillus cereus [2] = test: Bactericidal activity against Bacillus cereus clinical isolate after 72 hrs by microdilution method; format: functional
Aspergillus niger [3] = test: Fungicidal activity against Aspergillus niger ATCC 6275 after 72 hrs by microdilution method; format: functional
Pseudomonas aeruginosa [4] = test: Antibacterial activity against Pseudomonas aeruginosa ATCC 27853 after 24 hrs by microdilution method; format: functional; settings: ATCC 27853, 24 h
Aspergillus fumigatus [5] = test: Fungicidal activity against Aspergillus fumigatus isolated from human after 72 hrs by microdilution method; format: functional
Penicillium ochrochloron [6] = test: Antifungal activity against Penicillium ochrochloron ATCC 9112 after 72 hrs by microdilution method; format: functional; settings: ATCC 9112, 72 h
Micrococcus flavus [7] = test: Bactericidal activity against Micrococcus flavus ATCC 10240 after 72 hrs by microdilution method; format: functional
Penicillium ochrochloron [8] = test: Fungicidal activity against Penicillium ochrochloron ATCC 9112 after 72 hrs by microdilution method; format: functional
Aspergillus versicolor [9] = test: Antifungal activity against Aspergillus versicolor ATCC 11730 after 72 hrs by microdilution method; format: functional; settings: ATCC 11730, 72 h
Escherichia coli [10] = test: Antibacterial activity against Escherichia coli ATCC 35210 after 24 hrs by microdilution method; format: functional; settings: ATCC 35210, 24 h
Listeria monocytogenes [11] = test: Bactericidal activity against Listeria monocytogenes NCTC 7973 after 72 hrs by microdilution method; format: functional
Staphylococcus aureus [12] = test: Bactericidal activity against Staphylococcus aureus ATCC 6538 after 72 hrs by microdilution method; format: functional
Trichoderma viride [13] = test: Fungicidal activity against Trichoderma viride IAM 5061 after 72 hrs by microdilution method; format: functional
Talaromyces funiculosus [14] = test: Antifungal activity against Penicillium funiculosum ATCC 36839 after 72 hrs by microdilution method; format: functional; settings: ATCC 36839, 72 h
Aspergillus niger [15] = test: Antifungal activity against Aspergillus niger ATCC 6275 after 72 hrs by microdilution method; format: functional; settings: ATCC 6275, 72 h
Enterobacter cloacae [16] = test: Antibacterial activity against Enterobacter cloacae ATCC 35030 isolated from human after 24 hrs by microdilution method; format: functional; settings: ATCC 35030, 24 h
Aspergillus versicolor [17] = test: Fungicidal activity against Aspergillus versicolor ATCC 11730 after 72 hrs by microdilution method; format: functional
Aspergillus ochraceus [18] = test: Fungicidal activity against Aspergillus ochraceus ATCC 12066 after 72 hrs by microdilution method; format: functional
Salmonella typhimurium [19] = test: Bactericidal activity against Salmonella typhimurium ATCC 13311 after 72 hrs by microdilution method; format: functional, Salmonella enterica subsp. enterica serovar Typhimurium
Bacillus cereus [20] = test: Antibacterial activity against Bacillus cereus clinical isolate after 24 hrs by microdilution method; format: functional
Salmonella typhimurium [21] = test: Antibacterial activity against Salmonella typhimurium ATCC 13311 after 24 hrs by microdilution method; format: functional, Salmonella enterica subsp. enterica serovar Typhimurium; settings: Salmonella enterica, ATCC 13311, 24 h
Candida albicans [22] = test: Antifungal activity against Candida albicans ATCC 10231 isolated from human after 72 hrs by microdilution method; format: functional; settings: ATCC 10231, 72 h
Aspergillus ochraceus [23] = test: Antifungal activity against Aspergillus ochraceus ATCC 12066 after 72 hrs by microdilution method; format: functional; settings: ATCC 12066, 72 h
Talaromyces funiculosus [24] = test: Fungicidal activity against Penicillium funiculosum ATCC 36839 after 72 hrs by microdilution method; format: functional
Pseudomonas aeruginosa [25] = test: Bactericidal activity against Pseudomonas aeruginosa ATCC 27853 after 72 hrs by microdilution method; format: functional
Staphylococcus aureus [26] = test: Antibacterial activity against Staphylococcus aureus ATCC 6538 after 24 hrs by microdilution method; format: functional; settings: ATCC 6538, 24 h
Escherichia coli [27] = test: Bactericidal activity against Escherichia coli ATCC 35210 after 72 hrs by microdilution method; format: functional
Enterobacter cloacae [28] = test: Bactericidal activity against Enterobacter cloacae ATCC 35030 isolated from human after 72 hrs by microdilution method; format: functional
Candida albicans [29] = test: Fungicidal activity against Candida albicans ATCC 10231 isolated from human after 72 hrs by microdilution method; format: functional
Micrococcus flavus [30] = test: Antibacterial activity against Micrococcus flavus ATCC 10240 after 24 hrs by microdilution method; format: functional; settings: ATCC 10240, 24 h
Listeria monocytogenes [31] = test: Antibacterial activity against Listeria monocytogenes NCTC 7973 after 24 hrs by microdilution method; format: functional; settings: NCTC 7973, 24 h
Trichoderma viride [32] = test: Antifungal activity against Trichoderma viride IAM 5061 after 72 hrs by microdilution method; format: functional; settings: IAM 5061, 72 h

MIC (Aspergillus fumigatus [1]) [µM]	MIC (Pseudomonas aeruginosa [4]) [µM]	MIC (Penicillium ochrochloron [6]) [µM]	MIC (Aspergillus versicolor [9]) [µM]	MIC (Escherichia coli [10]) [µM]	MIC (Talaromyces funiculosus [14]) [µM]	MIC (Aspergillus niger [15]) [µM]	MIC (Enterobacter cloacae [16]) [µM]	MIC (Bacillus cereus [20]) [µM]	SMILES	MBC99.5 (Bacillus cereus [2]) [×10⁻² umol/ml]	MFC99.5 (Aspergillus niger [3]) [×10⁻² umol/ml]	MFC99.5 (Aspergillus fumigatus [5]) [×10⁻² umol/ml]	MBC99.5 (Micrococcus flavus [7]) [×10⁻² umol/ml]	MFC99.5 (Penicillium ochrochloron [8]) [×10⁻² umol/ml]	MBC99.5 (Listeria monocytogenes [11]) [×10⁻² umol/ml]	MBC99.5 (Staphylococcus aureus [12]) [×10⁻² umol/ml]	MFC99.5 (Trichoderma viride [13]) [×10⁻² umol/ml]	MFC99.5 (Aspergillus versicolor [17]) [×10⁻² umol/ml]	MFC99.5 (Aspergillus ochraceus [18]) [×10⁻² umol/ml]	MBC99.5 (Salmonella typhimurium [19]) [×10⁻² umol/ml]	other results
264 (≈ 99.9 µg/mL)	158 (≈ 59.8 µg/mL)	264 (≈ 99.9 µg/mL)	132 (≈ 50 µg/mL)	185 (≈ 70 µg/mL)	264 (≈ 99.9 µg/mL)	132 (≈ 50 µg/mL)	132 (≈ 50 µg/mL)	158 (≈ 59.8 µg/mL)	CNc1nc(C)c(C2=NN(c3ccccc3)C(c3ccc(OC)cc3)C2)s1 (stereo unspecified)	26.4	26.4	37	15.8	37	10.6	15.8	13.2	21.1	13.2	26.4	MIC (Salmonella typhimurium [21]): 185 µM (≈ 70 µg/mL); MIC (Candida albicans [22]): 264 µM (≈ 99.9 µg/mL); MIC (Aspergillus ochraceus [23]): 132 µM (≈ 50 µg/mL); MFC99.5 (Talaromyces funiculosus [24]): 37 ×10⁻² umol/ml; MBC99.5 (Pseudomonas aeruginosa [25]): 26.4 ×10⁻² umol/ml; MIC (Staphylococcus aureus [26]): 106 µM (≈ 40.1 µg/mL); MBC99.5 (Escherichia coli [27]): 21.1 ×10⁻² umol/ml; MBC99.5 (Enterobacter cloacae [28]): 18.5 ×10⁻² umol/ml; MFC99.5 (Candida albicans [29]): 37 ×10⁻² umol/ml; MIC (Micrococcus flavus [30]): 106 µM (≈ 40.1 µg/mL); MIC (Listeria monocytogenes [31]): 53 µM (≈ 20.1 µg/mL); MIC (Trichoderma viride [32]): 132 µM (≈ 50 µg/mL)
127 (≈ 50 µg/mL)	203 (≈ 79.9 µg/mL)	254 (≈ 99.9 µg/mL)	254 (≈ 99.9 µg/mL)	178 (≈ 70 µg/mL)	254 (≈ 99.9 µg/mL)	254 (≈ 99.9 µg/mL)	127 (≈ 50 µg/mL)	203 (≈ 79.9 µg/mL)	CNc1nc(C)c(C2=NN(c3ccccc3)C(c3ccc([N+](=O)[O-])cc3)C2)s1 (stereo unspecified)	25.4	32.2	15.2	20.3	32.2	10.2	20.3	15.2	32.2	20.3	25.4	MIC (Salmonella typhimurium [21]): 152 µM (≈ 59.8 µg/mL); MIC (Candida albicans [22]): 305 µM (≈ 120 µg/mL); MIC (Aspergillus ochraceus [23]): 127 µM (≈ 50 µg/mL); MFC99.5 (Talaromyces funiculosus [24]): 32.2 ×10⁻² umol/ml; MBC99.5 (Pseudomonas aeruginosa [25]): 25.4 ×10⁻² umol/ml; MIC (Staphylococcus aureus [26]): 102 µM (≈ 40.1 µg/mL); MBC99.5 (Escherichia coli [27]): 20.3 ×10⁻² umol/ml; MBC99.5 (Enterobacter cloacae [28]): 20.3 ×10⁻² umol/ml; MFC99.5 (Candida albicans [29]): 40.6 ×10⁻² umol/ml; MIC (Micrococcus flavus [30]): 127 µM (≈ 50 µg/mL); MIC (Listeria monocytogenes [31]): 76 µM (≈ 29.9 µg/mL); MIC (Trichoderma viride [32]): 127 µM (≈ 50 µg/mL)
131 (≈ 50.2 µg/mL)	152 (≈ 58.2 µg/mL)	131 (≈ 50.2 µg/mL)	131 (≈ 50.2 µg/mL)	183 (≈ 70.1 µg/mL)	262 (≈ 100 µg/mL)	131 (≈ 50.2 µg/mL)	131 (≈ 50.2 µg/mL)	157 (≈ 60.1 µg/mL)	CNc1nc(C)c(C2=NN(c3ccccc3)C(c3ccc(Cl)cc3)C2)s1 (stereo unspecified)	31.4	26.2	26.2	21	15.7	10.5	21	21	21	15.7	18.3	MIC (Salmonella typhimurium [21]): 152 µM (≈ 58.2 µg/mL); MIC (Candida albicans [22]): 157 µM (≈ 60.1 µg/mL); MIC (Aspergillus ochraceus [23]): 131 µM (≈ 50.2 µg/mL); MFC99.5 (Talaromyces funiculosus [24]): 36.7 ×10⁻² umol/ml; MBC99.5 (Pseudomonas aeruginosa [25]): 31.4 ×10⁻² umol/ml; MIC (Staphylococcus aureus [26]): 105 µM (≈ 40.2 µg/mL); MBC99.5 (Escherichia coli [27]): 21 ×10⁻² umol/ml; MBC99.5 (Enterobacter cloacae [28]): 18.3 ×10⁻² umol/ml; MFC99.5 (Candida albicans [29]): 26.2 ×10⁻² umol/ml; MIC (Micrococcus flavus [30]): 105 µM (≈ 40.2 µg/mL); MIC (Listeria monocytogenes [31]): 52 µM (≈ 19.9 µg/mL); MIC (Trichoderma viride [32]): 131 µM (≈ 50.2 µg/mL)
